Measured values taken from PMC9963009, “Investigation of the Protective Effect for GcMAF by a Glycosidase Inhibitor and the Glycan Structure of Gc Protein” (Molecules, 2023).

Target: T1, α-N-acetylgalactosaminidase (α-GalNAc-ase) from chicken liver (Gallus gallus, UniProt Q90744)
T1 construct: gene NAGA; commercial enzyme from chicken liver
T1 sequence (Q90744 1-405): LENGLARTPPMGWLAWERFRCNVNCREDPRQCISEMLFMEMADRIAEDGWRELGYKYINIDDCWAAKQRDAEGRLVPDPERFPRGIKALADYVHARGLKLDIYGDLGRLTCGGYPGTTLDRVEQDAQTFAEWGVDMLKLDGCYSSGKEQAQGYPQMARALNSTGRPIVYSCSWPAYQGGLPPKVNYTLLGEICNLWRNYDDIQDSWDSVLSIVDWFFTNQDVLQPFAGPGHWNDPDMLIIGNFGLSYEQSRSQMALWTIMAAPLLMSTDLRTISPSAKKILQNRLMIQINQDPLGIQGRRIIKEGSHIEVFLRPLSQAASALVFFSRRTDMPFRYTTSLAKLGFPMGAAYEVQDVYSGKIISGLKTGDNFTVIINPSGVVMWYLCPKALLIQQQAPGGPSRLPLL
Test: LC-MS of Gc protein glycopeptides after treatment with a mix of three glycosidases with/without […] inhibitor
Assay type: biochemical

SMILES: OCC1NC(CNCCc2ccccc2)C(O)C1O (stereo not shown) [iminocyclitol, 2-Hydroxymethyl-5-(phenethylaminomethyl)-pyrrolidine-3,4-diol]
- LC-MS of Gc protein glycopeptides after treatment with a mix of three glycosidas: the inhibitory activity of iminocyclitol against α-GalNAc-ase was also observed (Figure 4c)
